System: RNA isoforms in PNN 1-46 SMA type I patient-derived fibroblasts
Assay: RNA Abundance Modulation (RNA isoform abundance, iFPM, HiSeq RNA sequencing)
Type: cell-based, human
Details: 3 μM
Procedure: Cells from a cell line of interest are cultured in conditions sufficient to yield the number of cells capable of generating enough RNA for subsequent sequencing steps. Cells from the tested cell line are contacted with a compound described herein.
To culture said cells, they are seeded, at appropriate concentrations in a volume of media in a cell culture container and incubated for 4, 5, 6, 7, 8, 9, 10, or more hours. A concentrated solution of compound in a vehicle (e.g., DMSO) is then added in sufficient volume to result in the intended final concentration of the compound, for example 100 nM, 500 nM, 1 μM, 5 μM, 10 μM, 15 μM, 20 μM, or more. The cells may also be treated with vehicle alone, as a control. A number of replicates of each concentration or control may be made (e.g., 2 replicates). The cells are then incubated at a constant temperature appropriate for cell culture of the particular cell line (e.g., 37° C.) for 6, 12, 18, 24, 48, or more hours. After incubation, the growth medium is removed and the cells are washed with the appropriate buffer (e.g., PBS). Cells are then removed from adherence to the cell culture container by treatment with a solution containing trypsin, and the trypsin subsequently quenched with the appropriate volume of buffer (e.g., DMEM-FBS). The cells are then pelleted with gentle centrifugation (e.g., ≤90×g centrifugal force) and resuspended in a buffer to lyse the cells for extraction of RNA. The cell lysates may then be frozen (e.g., at −80° C.) or, alternately, may immediately be used in a procedure to purify the RNA (e.g. by use of the RNEASY PLUS® minikit). The RNA from cell lysates is eluted in the appropriate volume of buffer (e.g., RNEASE-FREE H2O®). The resulting purified RNA may then be sequenced (e.g., using RNASeq) or analyzed using a human exon array (e.g., by GENECHIP® human exon array) to determine changes in the RNA levels in those cells treated with compound compared to those cells treated only with DMSO. The purified RNA may also be quantified by other methods known in the art.
Using the RNA data obtained from sequencing, exon array, or other methods, a statistical analysis can reveal changes in the RNA levels of compound-treated compared with control. For example, t-test p-values may be calculated for the data obtained through sequencing and exon array methods in order to compare compound-treated cells to those treated with the DMSO control. […] Analysis of the sequencing and exon array data may then also yield predictions about the cause of the aberrant amount of an RNA transcript in the cells (e.g., perturbation of RNA splicing, RNA transcription, or RNA stability). These predictions may be further confirmed by methods known in the art. For example, RT-PCR and RT-qPCR may be used to confirm the change in amount of RNA transcripts for one or more particular transcripts of interest.
Following the methods described above in Example 1, PNN 1-46 SMA type I patient-derived fibroblasts were treated with 300 nM or 3 μM Compounds 774 and 808 in 0.5% DMSO.
700,000 cells were seeded in 10 mL of medium (DMEM plus 10% FBS) in a T-75 flask. Cells were allowed to attach for at least 4 hrs, after which 50 μL of a 200× compound solution (100% DMSO) was added to each well, and the plate was incubated at 37° C. for 24 hrs.
At the end of the incubation period, the supernatant was removed and the cells where washed with PBS. TrypLE (Invitrogen) express solution was added (e.g. 1.5 mL per one T75 flask). The flasks were incubated for 3 to 5 min at 37° C. The trypsin was then quenched, e.g., by adding 10 mL DMEM-FBS.
Next, the cells were pelleted using gentle centrifugation without exceeding 90×g centrifugal force. The supernatant was removed and the cell pellet was re-suspended in 600 μL RLT buffer (the RLT buffer was supplemented with beta-mercaptoethanol according to the RNeasy protocol manual) by pipetting up and down until the pellet was completely dissolved […]

CCc1nc(C)cn2nc(-c3cc(=O)n4cc(C5CCN(C)CC5)cc(C)c4n3)cc12 [Compound 774]
L2FC (x + 1) (UBE2V1 NM_022442): −1.807
L2abs (Cpd-DMSO) (UBE2V1 NM_022442): 1.32
abs (Cpd-DMSO) (UBE2V1 NM_022442): 2 iFPM
amp FC (x + 1) (UBE2V1 NM_022442): 3.50
ave Cpd (UBE2V1 NM_022442): 0 iFPM
FC (x + 1) (UBE2V1 NM_199144): 9.0627
L2FC (x + 1) (UBE2V1 NM_199144): 3.180
L2abs (Cpd-DMSO) (UBE2V1 NM_199144): 3.01
abs (Cpd-DMSO) (UBE2V1 NM_199144): 8 iFPM
amp FC (x + 1) (UBE2V1 NM_199144): 9.06
ave Cpd (UBE2V1 NM_199144): 8 iFPM
FC (x + 1) (UBE2V1 NM_001032288): 1.0807
L2FC (x + 1) (UBE2V1 NM_001032288): 0.112
L2abs (Cpd-DMSO) (UBE2V1 NM_001032288): 8.47
abs (Cpd-DMSO) (UBE2V1 NM_001032288): 355 iFPM
amp FC (x + 1) (UBE2V1 NM_001032288): 1.08
ave Cpd (UBE2V1 NM_001032288): 4751 iFPM
FC (x + 1) (UBE2V1 NM_001257393): 0.0796
L2FC (x + 1) (UBE2V1 NM_001257393): −3.651
L2abs (Cpd-DMSO) (UBE2V1 NM_001257393): 3.53
abs (Cpd-DMSO) (UBE2V1 NM_001257393): 12 iFPM
amp FC (x + 1) (UBE2V1 NM_001257393): 12.56
ave Cpd (UBE2V1 NM_001257393): 0 iFPM
FC (x + 1) (UBE2V1 NM_001257394): 0.1697
L2FC (x + 1) (UBE2V1 NM_001257394): −2.559
L2abs (Cpd-DMSO) (UBE2V1 NM_001257394): 4.01
abs (Cpd-DMSO) (UBE2V1 NM_001257394): 16 iFPM
amp FC (x + 1) (UBE2V1 NM_001257394): 5.89
ave Cpd (UBE2V1 NM_001257394): 2 iFPM
FC (x + 1) (UBE2V1 NM_001257397): 0.5713
L2FC (x + 1) (UBE2V1 NM_001257397): −0.808
L2abs (Cpd-DMSO) (UBE2V1 NM_001257397): 3.18
abs (Cpd-DMSO) (UBE2V1 NM_001257397): 9 iFPM
amp FC (x + 1) (UBE2V1 NM_001257397): 1.75
ave Cpd (UBE2V1 NM_001257397): 11 iFPM
FC (x + 1) (UBE2V1 NM_001257399): 1.1595
L2FC (x + 1) (UBE2V1 NM_001257399): 0.214
L2abs (Cpd-DMSO) (UBE2V1 NM_001257399): 4.66
abs (Cpd-DMSO) (UBE2V1 NM_001257399): 25 iFPM
amp FC (x + 1) (UBE2V1 NM_001257399): 1.16
ave Cpd (UBE2V1 NM_001257399): 182 iFPM
FC (x + 1) (UBE2V1 NR_047554): 0.0730
L2FC (x + 1) (UBE2V1 NR_047554): −3.777
L2abs (Cpd-DMSO) (UBE2V1 NR_047554): 8.39
abs (Cpd-DMSO) (UBE2V1 NR_047554): 337 iFPM
amp FC (x + 1) (UBE2V1 NR_047554): 13.71
ave Cpd (UBE2V1 NR_047554): 25 iFPM
FC (x + 1) (UBE2V1 NR_047555): 0.9261
L2FC (x + 1) (UBE2V1 NR_047555): −0.111
L2abs (Cpd-DMSO) (UBE2V1 NR_047555): −1.09
abs (Cpd-DMSO) (UBE2V1 NR_047555): 0 iFPM
amp FC (x + 1) (UBE2V1 NR_047555): 1.08
ave Cpd (UBE2V1 NR_047555): 5 iFPM
FC (x + 1) (UBE2V1 NR_047556): 0.5268
L2FC (x + 1) (UBE2V1 NR_047556): −0.925
L2abs (Cpd-DMSO) (UBE2V1 NR_047556): 3.88
abs (Cpd-DMSO) (UBE2V1 NR_047556): 15 iFPM
amp FC (x + 1) (UBE2V1 NR_047556): 1.90
ave Cpd (UBE2V1 NR_047556): 15 iFPM
FC (x + 1) (UCHL5 AK225794): 0.7328
L2FC (x + 1) (UCHL5 AK225794): −0.448
L2abs (Cpd-DMSO) (UCHL5 AK225794): 3.79
abs (Cpd-DMSO) (UCHL5 AK225794): 14 iFPM
amp FC (x + 1) (UCHL5 AK225794): 1.36
ave Cpd (UCHL5 AK225794): 37 iFPM
FC (x + 1) (UCHL5 AK316064): 1.3941
L2FC (x + 1) (UCHL5 AK316064): 0.479
L2abs (Cpd-DMSO) (UCHL5 AK316064): 4.93
abs (Cpd-DMSO) (UCHL5 AK316064): 30 iFPM
ave Cpd (UCHL5 AK316064): 106 iFPM
FC (x + 1) (UCHL5 BC015381): 1.2220
L2FC (x + 1) (UCHL5 BC015381): 0.289
L2abs (Cpd-DMSO) (UCHL5 BC015381): 1.34
abs (Cpd-DMSO) (UCHL5 BC015381): 3 iFPM
ave Cpd (UCHL5 BC015381): 13 iFPM
